Read-outs that look alike come from different tables or passages of the source.
Assays:
[1] = test system: Hela; experiment: In vitro cytotoxicity, IC50 by MTT method, Hela; type: cell-based; conditions: Homo sapiens; Hela cell strain; read-out: IC50 Hela
Outline: (§1)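 MTT viability, 48 h exposure: cells 10^5/ml in RPMI1640 + 10% FBS, 37 °C/5% CO2; MTT 4 h, DMSO solubilisation, A490.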

[2] = test system: CT-DNA; experiment: DNA thermal denaturation, determination of ΔTm; type: binding; conditions: 20 uM compound, Tm of CT-DNA alone 61° C.
Procedure: Experiments were carried out in PE buffer (1 mM Na2HPO4, 0.1 mM EDTA, pH 7.6) in a thermostatically controlled cell hold, and the quartz cuvette (1 cm path length) was heated by circulating water at a heating rate of 0.5° C./min from 25 to 95° C. Amsacrine and Doxorubicin Hydrochloride were used as standards. In all cases, the concentration of CT-DNA was 15 ug/ml. The ‘melting’ temperature Tm was taken as the mid-point of the hyperchromic transition.
ΔTm=Tm^drug-DNA complex−Tm^DNA alone
The ΔTm of each compound was calculated, Experiments were repeated three times, and an average value was calculated.

[3] = test system: S180 sarcoma; conditions: S180 sarcoma; for Body weight of the animals, beginning, First time / Body weight of the animals, end, First time / Inhibition rate, First time / Weight of the tumor X ± SD, First time / Body weight of the animals, beginning, Second time / Body weight of the animals, end, Second time / Inhibition rate, Second time: ip × 10qd
[4] = test system: PLA-801; experiment: In vitro cytotoxicity, IC50 by MTT method, PLA-801; type: cell-based; conditions: PLA-801 cell strain; read-out: IC50 PLA-801
Outline: as §1

[5] = test system: BGC-823; experiment: In vitro cytotoxicity, IC50 by MTT method, BGC-823; type: cell-based; conditions: Homo sapiens, BGC-823; BGC823 cell strain; read-out: IC50 BGC823
Outline: as §1

[6] = test system: HepG2; experiment: In vitro cytotoxicity, IC50 by MTT method, HepG2; type: cell-based, human; conditions: Homo sapiens; HepG2 cell strain; read-out: IC50 HepG2
Outline: as §1

[7] = test system: Lovo; experiment: In vitro cytotoxicity, IC50 by MTT method, Lovo; type: cell-based; conditions: Homo sapiens; Lovo cell strain; read-out: IC50 Lovo
Outline: as §1

[8] = test system: Kunming mice; conditions: for Death rate: single i.p.
[9] = test system: NIH3T3; experiment: In vitro cytotoxicity, IC50 by MTT method, NIH3T3; type: cell-based; conditions: Mus musculus; NIH3T3 cell strain; read-out: IC50 NIH3T3
Outline: as §1

[10] = test system: Bel-7402; experiment: In vitro cytotoxicity, IC50 by MTT method, Bel-7402; type: cell-based; conditions: Homo sapiens, Bel-7402; Bel7402 cell strain; read-out: IC50 Bel7402
Outline: as §1

[11] = test system: Lewis lung cancer; conditions: Lewis lung cancer; for Body weight of the animals, end, First time / Body weight of the animals, end, Second time: ip × 10qd;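 as to all read-outs here: mice implanted subcutaneously in the axilla with Lewis lung tumor cells, treated starting the following day, killed roughly three weeks after implantation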
[12] = in vivo; conditions: both, Kunming, mouse, ip
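For Death rate in this document: acute toxicity in Kunming mice grouped by sex, one intraperitoneal dose at five graded levels in Tween-80 plus 0.5% CMC-Na, deaths monitored over two weeks.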
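For LD50 in this document: acute toxicity in Kunming mice grouped by sex, one intraperitoneal dose at five graded levels in Tween-80 plus 0.5% CMC-Na, deaths monitored over two weeks.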

SMILES: CCOC(=O)c1cc2c3ccccc3n(Cc3ccccc3)c2cn1 [Compound 33, ethyl 9-benzyl-β-carboline-3-carboxylate]
- IC50 [1]: 10 µM
- ΔTm ([2]; CT-DNA 15 ug/ml, PE buffer pH 7.6): −1.2 °C
- ΔTm ([2]; CT-DNA thermal denaturation): −1.2 °C
- Body weight of the animals, beginning, First time ([3]; Dosage 50 (mg/ml)): 19.4 g
- Body weight of the animals, end, First time ([3]; Dosage 50 (mg/ml)): 24.4 g
- Inhibition rate, First time ([3]; Dosage 50 (mg/ml)): 33.33%
- Weight of the tumor X ± SD, First time ([3]; Dosage 50 (mg/ml)): 1.78 ± 0.17 g
- Body weight of the animals, beginning, Second time ([3]; Dosage 50 (mg/ml)): 18.7 g
- Body weight of the animals, end, Second time ([3]; Dosage 50 (mg/ml)): 25.6 g
- Inhibition rate, Second time ([3]; Dosage 50 (mg/ml)): 32.22%
- Weight of the tumor X ± SD, Second time ([3]; Dosage 50, ip × 10qd): 1.83 ± 0.19 g
- Body weight of the animals, beginning, First time ([3]; Dosage 100 (mg/ml)): 19.4 g
- Body weight of the animals, end, First time ([3]; Dosage 100 (mg/ml)): 24.6 g
- Inhibition rate, First time ([3]; Dosage 100 (mg/ml)): 42.70%
- Weight of the tumor X ± SD, First time ([3]; Dosage 100 (mg/ml)): 1.53 ± 0.15 g
- Body weight of the animals, beginning, Second time ([3]; Dosage 100 (mg/ml)): 18.6 g
- Body weight of the animals, end, Second time ([3]; Dosage 100 (mg/ml)): 25.1 g
- Inhibition rate, Second time ([3]; Dosage 100 (mg/ml)): 40.00%
- Weight of the tumor X ± SD, Second time ([3]; Dosage 100, ip × 10qd): 1.62 ± 0.30 g
- Inhibition rate (%) S180 sarcomata ([3]; comparison table 43, in vivo): 42.11%
- IC50 [4]: 170 µM
- IC50 [5]: 150 µM
- IC50 [6]: 80 µM
- IC50 [7]: 120 µM
- Death rate ([8]; 50% male 50% female mice, 240 mg/kg): 50
- Death rate ([8]; 50% male 50% female mice, 300 mg/kg): 90
- Death rate ([8]; female mice, 240 mg/kg): 60
- Death rate ([8]; female mice, 300 mg/kg): 100
- Death rate ([8]; male mice, 240 mg/kg): 40
- Death rate ([8]; male mice, 300 mg/kg): 80
- LD50 ([8]; mouse, in vivo, ip): 211 to 274 mg/kg
- IC50 [9]: 50 µM
- IC50 [10]: 340 µM
- Body weight of the animals, end, First time ([11]; Dosage 50 (mg/ml)): 25.4 g
- Body weight of the animals, end, Second time ([11]; Dosage 50 (mg/ml)): 24.9 g
- Body weight of the animals, beginning, First time ([11]; Dosage 50, ip × 10qd): 20.3 g
- Inhibition rate, First time ([11]; Dosage 50, ip × 10qd): 34.16%
- Weight of the tumor X ± SD, First time ([11]; Dosage 50, ip × 10qd): 1.60 ± 0.09 g
- Body weight of the animals, beginning, Second time ([11]; Dosage 50, ip × 10qd): 18.9 g
- Inhibition rate, Second time ([11]; Dosage 50, ip × 10qd): 31.06%
- Weight of the tumor X ± SD, Second time ([11]; Dosage 50, ip × 10qd): 2.02 ± 0.18 g
- Body weight of the animals, end, First time ([11]; Dosage 100 (mg/ml)): 24.7 g
- Body weight of the animals, end, Second time ([11]; Dosage 100 (mg/ml)): 24.5 g
- Body weight of the animals, beginning, First time ([11]; Dosage 100, ip × 10qd): 19.9 g
- Inhibition rate, First time ([11]; Dosage 100, ip × 10qd): 42.80%
- Weight of the tumor X ± SD, First time ([11]; Dosage 100, ip × 10qd): 1.39 ± 0.15 g
- Body weight of the animals, beginning, Second time ([11]; Dosage 100, ip × 10qd): 19.0 g
- Inhibition rate, Second time ([11]; Dosage 100, ip × 10qd): 43.34%
- Weight of the tumor X ± SD, Second time ([11]; Dosage 100, ip × 10qd): 1.66 ± 0.12 g
- Inhibition rate (%) Lewis cancer ([11]; comparison table 43, in vivo): 43.3%
- LD50 at 2 weeks [12]: 240 mg/kg

— patent US20090227619A1, “Harmine derivatives, intermediates used in their preparations, preparation processes and use therefo” (priority 2003, published 2009)
